Data reported in publication PMC7956382 (Molecules, 2021).

Tested on: muscle nAChR-expressing cells
Assay type: cell-based, mouse

α-bungarotoxin [α-Bgt]
Inhibition of calcium transients: No transients were recorded
